According to patent US8563558B2, “Substituted pyridine urea compounds” (Confluence Life Sciences, Inc., priority 2010, dated 2013):
Several values for one entry are separate records, joined by “and”; a condition that tells them apart may be missing. Equal entries are not always repeated.

Legend:
p38α/MK2 = p38α/MK2 (Homo sapiens, UniProt Q16539); experiment: p38α/MK2 cascade assay (phosphorylation of Hsp27 peptide, Caliper LabChip 3000); assay type: biochemical; settings: Hsp27 peptide 1 μM, MgATP 10 μM, 30 minutes, room temperature, two values given, read-out: p38/MK2 IC50
p38α/MK2, sequence (Q16539 whole entry): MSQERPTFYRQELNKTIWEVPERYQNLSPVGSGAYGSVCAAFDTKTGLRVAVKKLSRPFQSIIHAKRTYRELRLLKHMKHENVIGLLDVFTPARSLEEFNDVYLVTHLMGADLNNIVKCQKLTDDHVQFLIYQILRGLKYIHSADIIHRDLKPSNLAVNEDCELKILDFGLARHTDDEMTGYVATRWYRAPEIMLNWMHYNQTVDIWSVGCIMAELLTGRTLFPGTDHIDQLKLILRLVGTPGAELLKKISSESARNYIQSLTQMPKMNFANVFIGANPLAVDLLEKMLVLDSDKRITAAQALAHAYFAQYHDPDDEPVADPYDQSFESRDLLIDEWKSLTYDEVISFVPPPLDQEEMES
p38α/MK2, sequence (P49137 whole entry partner): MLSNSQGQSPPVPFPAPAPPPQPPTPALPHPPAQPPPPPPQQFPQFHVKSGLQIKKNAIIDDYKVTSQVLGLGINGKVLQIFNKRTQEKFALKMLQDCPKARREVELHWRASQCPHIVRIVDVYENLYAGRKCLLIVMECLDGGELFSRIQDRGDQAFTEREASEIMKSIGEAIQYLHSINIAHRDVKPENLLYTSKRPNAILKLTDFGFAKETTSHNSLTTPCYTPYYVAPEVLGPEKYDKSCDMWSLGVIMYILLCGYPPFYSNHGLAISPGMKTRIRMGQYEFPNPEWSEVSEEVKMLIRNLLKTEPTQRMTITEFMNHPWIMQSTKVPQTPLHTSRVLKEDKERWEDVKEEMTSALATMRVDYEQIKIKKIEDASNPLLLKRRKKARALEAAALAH
Description: (§1) P38 inhibitory potency and P38/MK2 substrate selectivity: The novel, MK2 substrate-selective inhibitory mechanism of compounds is evaluated in enzyme assays comparing inhibitor potency in blocking p38/MK2 versus p38/PRAK induced phosphorylation of an HSP-27 derived peptide substrate. The ability of compounds to inhibit activated phospho-p38α is evaluated using a p38α/MK2 and a p38α/PRAK cascade assay format. The kinase activity of p38α is determined by its ability to phosphorylate GST-MK2 or GST-PRAK. Activation of MK2 or PRAK by p38α is quantitated by measuring the phosphorylation of a fluorescently-labeled, MK2 specific peptide substrate, Hsp27 peptide (FITC-KKKALSRQLSVAA). The phosphorylation of the Hsp27 peptide is quantified using the Caliper LabChip 3000. Kinase reactions are carried out in a 384-well plate (Matrical, MP101-1-PP) in 20 mM HEPES pH 7.5, 10 mM MgCl2, 0.0005% Tween-20, 0.01% BSA, 1 mM DTT, and 2% DMSO. The inhibitor concentration is varied between 0.02-30,000 nM, while the Hsp27 peptide substrate and MgATP are held constant at 1 μM and 10 μM, respectively. Activated p38α is added to a final concentration of […] for reactions with nonphosphorylated 1 nM His6-MK2 in the cascade reaction. For the p38α/PRAK cascade, unactivated GST-PRAK is held constant at 1 nM while p38α is added in to a final concentration of […]. Kinase reactions are incubated at room temperature and quenched after 30 minutes by the addition of stop buffer (180 mM HEPES, 30 mM EDTA, and 0.2% Coating Reagent-3). Under these conditions, approximately 20% of the substrate Hsp27 peptide is phosphorylated. Reactions are initiated by the addition of activated p38α except for preincubation experiments, where reactions are initiated by the addition of Hsp27 peptide and MgATP. Preincubation of p38α with inhibitor or p38α with unactivated His6-MK2 or unactivated GST-PRAK and inhibitor are performed at 2× final assay concentrations at room temperature 240 minutes prior to adding ATP and Hsp27 peptide to initiate catalysis. The p38α compound inhibitory potency is quantitated from dose-response IC50 values or Ki values from p38α/MK2 cascade assays while the substrate selectivity is calculated as a ratio of p38α/PRAK:p38α/MK2 IC50 values. Species compounds of Formula I, described hereinabove, evaluated in this assay, are expected to provide a therapeutic benefit in the treatment of p38 kinase mediated diseases, such as autoimmune diseases and lymphoma.

p38α/PRAK = p38α/PRAK (Homo sapiens, UniProt Q16539); experiment: p38α/PRAK cascade assay (phosphorylation of Hsp27 peptide, Caliper LabChip 3000); assay type: biochemical; settings: Hsp27 peptide 1 μM, MgATP 10 μM, 30 minutes, room temperature, two values given, read-out: p38/PRAK IC50
p38α/PRAK, sequence (Q16539 whole entry): as the sequence (Q16539 whole entry) above
Description: as §1

Row | Compound | IC50 (p38α/MK2) | IC50 (p38α/PRAK)
1 | Cc1ccc(-c2ccnc(C(C)(C)O)n2)cc1N(C(N)=O)c1cccc(-c2ccc(F)cc2F)n1 [Example 5, 1-(6-(2,4-difluorophenyl)pyridin-2-yl)-1-(5-(2-(2-hydroxypropan-2-yl)pyrimidin-4-yl)-2-methylphenyl)urea] | 340 nM and 360 nM | 1.9 µM and 2.6 µM
2 | COC(=O)c1ccc(N(C(N)=O)c2cc(-c3ccnc(C(C)(C)C)n3)ccc2C)nc1-c1ccc(F)cc1F [Example 32, methyl 6-(1-(5-(2-(tert-butyl)pyrimidin-4-yl)-2-methylphenyl)ureido)-2-(2,4-difluorophenyl)nicotinate] | 838 nM and 955 nM | > 10 µM
3 | Cc1ccc(-c2ccnc(C(C)(C)C)n2)cc1N(C(N)=O)c1cccc(-c2ccc(F)cc2F)n1 [Example 31, 1-(5-(2-(tert-butyl)pyrimidin-4-yl)-2-methylphenyl)-1-(6-(2,4-difluorophenyl)pyridin-2-yl)urea] | 1270 nM and 1530 nM | > 50 µM
4 | Cc1ccc(-c2ccnc(C(C)(C)C)n2)cc1N(C(N)=O)c1ccc(C(N)=O)c(-c2ccc(F)cc2F)n1 [Example 17, 6-(1-(5-(2-(tert-butyl)pyrimidin-4-yl)-2-methylphenyl)ureido)-2-(2,4-difluorophenyl)nicotinamide] | 550 nM and 500 nM | > 10 µM
5 | Cc1nc(-c2cccc(N(C(N)=O)c3cc(-c4ccnc(C(C)(C)C)n4)ccc3C)n2)cs1 [Example 33, 1-(5-(2-(tert-butyl)pyrimidin-4-yl)-2-methylphenyl)-1-(6-(2-methylthiazol-4-yl)pyridin-2-yl)urea] | 9500 nM and 12000 nM | > 50 µM
